Tumor size, tumor growth and remission of tumors data for one molecule are collected here from patent publication US20190125869A1, “PULSED ELECTROMAGNETIC THERAPY FOR DIRECTING AGENTS TO CANCER CELLS” (MMTC, Inc., priority 2017, published 2019).

The experiment deals with AT2 prostatic tumor of rats. The experiment is described as follows: Growth of implanted tumors after intravenous Taxol, with or without pulsed microwaves. The class given is in vivo, Copenhagen rats. The procedure:
Treatment times were 30 minutes.
One rat with four implanted tumors, two in each flank, was used. Taxol was injected intravenously at 5 mg/kg. The two lower (right and left) tumors were treated as described above with pulsed microwaves, beginning immediately after the injection. Tumor growth was monitored over 14 days.

Consider `CC(=O)O[C@H]1C(=O)[C@@]2(C)[C@H]([C@H](OC(=O)c3ccccc3)[C@]3(O)C[C@H](OC(=O)[C@H](O)[C@@H](NC(=O)c4ccccc4)c4ccccc4)C(C)=C1C3(C)C)[C@]1(OC(C)=O)CO[C@@H]1C[C@@H]2O` [Taxol], for which the tumor size result runs as follows: (Taxol 5 mg/kg intravenously plus pulsed microwaves (two treated tumors), after 14 days) “barely detectable”; (Taxol 5 mg/kg intravenously plus pulsed microwaves (two treated tumors), at 5 days) “almost disappeared”; (Taxol 5 mg/kg intravenously, non-pulsed control tumors in the same rat, at 5 days) “remained large”. Further, where the note is “Taxol 5 mg/kg intravenously, non-pulsed control tumors in the same rat, after 14 days”, the tumor growth entry is on record as “continued to grow”. Also, for the setting “microwave pulsing combined with systemically administered Taxol, pilot study summary”, the remission of tumors result was “remission of tumors could be obtained”.
